The record followed here is ChEMBL document CHEMBL2413037, “Cembrane diterpenoids from the soft coral Sarcophyton trocheliophorum Marenzeller as a new class of PTP1B inhibitors” (Bioorg Med Chem, 2013).

One data set deals with HL-60. Put plainly: Cytotoxicity against human HL60 cells. In kind it is cell-based.
The test system of the next data set is A549. Put plainly: Cytotoxicity against human A549 cells. In kind it is cell-based.
The target in data set [1] is T1, Tyrosine-protein phosphatase non-receptor type 1 (Homo sapiens, UniProt P18031).
T1 sequence (P18031 whole entry): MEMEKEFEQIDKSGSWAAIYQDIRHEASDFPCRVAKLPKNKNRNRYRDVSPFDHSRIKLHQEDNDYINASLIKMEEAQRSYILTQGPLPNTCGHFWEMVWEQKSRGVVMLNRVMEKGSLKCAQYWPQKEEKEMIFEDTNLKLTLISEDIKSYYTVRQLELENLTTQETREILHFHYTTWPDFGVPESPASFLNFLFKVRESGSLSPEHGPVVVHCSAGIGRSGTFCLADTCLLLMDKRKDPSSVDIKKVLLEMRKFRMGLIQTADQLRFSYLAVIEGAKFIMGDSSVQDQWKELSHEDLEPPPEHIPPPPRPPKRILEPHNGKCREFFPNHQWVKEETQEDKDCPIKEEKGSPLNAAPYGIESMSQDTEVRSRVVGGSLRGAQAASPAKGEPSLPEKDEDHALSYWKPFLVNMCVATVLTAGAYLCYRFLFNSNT
Put plainly: Inhibition of human recombinant PTP1B-mediated pNPP hydrolysis.

Where only a bound is given, the exact number is not on record here.

As usually defined, the IC50 is the concentration that inhibits the measured activity by half. With `COC(=O)/C1=C\C=C(\C(C)C)CC/C(C)=C/CC/C(C)=C/CC1`, the Activity result in the data set with HL-60 and with A549 was “Non-toxic” in each case. For the same molecule, the IC50 in data set [1] turned out to be 5.95 µM.

In the case of `COC(=O)/C1=C\CC[C@]2(C)O[C@H]2CC/C(C(=O)OC)=C/C=C(/C(C)C)CC1`, the Activity entry in the data set on HL-60 and in the data set with A549 was “Non-toxic” in each case. Further, in data set [1], the IC50 is at least 53.1 µM.

On to `COC(=O)/C1=C\C=C(\C(C)C)CC/C(C(=O)O)=C/CC[C@]2(C)O[C@H]2CC1`, for which the Activity entry in the data set on HL-60 and in the data set with A549 was “Non-toxic” each time. Further, in data set [1], the IC50 was at least 55.2 µM.

For the molecule `COC(=O)/C1=C\CC[C@](C)(O)[C@H](O)CC/C(C(=O)OC)=C\C=C(/C(C)C)CC1`, the Activity entry in the data set with HL-60 and with A549 was “Non-toxic” in each case. Besides, in data set [1], the half-inhibitory concentration (IC50) is at least 50.7 µM.

Take `CC(=O)O[C@@H]1C/C(C)=C/C/C=C(/C)CC(=O)CC2=C[C@@H](OC2=O)[C@@H]1C(C)C`: the Activity entry with HL-60 and with A549 was “Non-toxic” throughout. Further, in data set [1], the IC50 was at least 53.4 µM.

For `C/C1=C\C=C(\C(C)C)CC/C(C)=C/CC/C(C)=C/CC1`, the Activity entry with HL-60 and with A549 was “Non-toxic” in each case. Besides, in data set [1], the IC50 is 26.6 µM.

Take `CC(=O)O[C@@H]1C/C(C)=C/CCC(C)CC(=O)CC2=C[C@@H](OC2=O)[C@@H]1C(C)C` (stereo partly drawn): the Activity entry with HL-60 and in the data set with A549 was “Non-toxic” each time. Further, in data set [1], the IC50 is at least 53.1 µM.

Regarding `C/C1=C/C=C(/C(C)C)CCC2=CCC[C@](C)(OC2=O)C(=O)CC1`, the Activity entry with HL-60 and in the data set with A549 was “Non-toxic” in each case. The IC50 in data set [1] came to 15.4 µM.

Consider `CC(C)=C1C/C=C(\C)CC/C=C(\C)CC/C=C(\C)CC1`, for which the Activity entry in the data set with HL-60 and in the data set with A549 was “Non-toxic” in each case. Besides, the IC50 in data set [1] is at least 73.4 µM.

With `COC(=O)/C1=C\C=C(\C(C)C)CCC2=CCC[C@](C)(OC2=O)C(=O)CC1` [KETOEMBLIDE], the Activity result in the data set on HL-60 and in the data set on A549 was “Non-toxic” throughout. The IC50 in data set [1] is 27.2 µM.

As to `COC(=O)/C1=C/C=C(/C(C)C)CCC2=CCC[C@](C)(OC2=O)C(=O)CC1` [SARCRASSIN E], the Activity result in the data set with HL-60 and in the data set with A549 was “Non-toxic” throughout. In data set [1], the IC50 was 6.33 µM.
